Source: US12448369B2 (Edgewise Therapeutics, Inc., priority 2023, dated 2025)
Marks after values point to notes of the source that are not given here.

Assays:
[1] = tested on: Rabbit Psoas myofibrils (skeletal myosin ATPase); assay: Myofibril ATPase assay, rabbit psoas (skeletal) myofibrils; assay type: biochemical
In short: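 Myofibrils homogenized in Triton X-100 buffer were assayed in pH 7.0 PIPES with defined Ca2+/EGTA. Myosin-driven ADP formation was coupled to NADH oxidation, with depletion monitored at 340 nm. Each value is the concentration that lowers activity to 75% of vehicle or, for activators, raises it to 125%.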

[2] = tested on: Porcine atria myofibrils (atrial myosin ATPase); assay: Myofibril ATPase assay, porcine atria myofibrils; assay type: biochemical
In short: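 Values are Y75 (concentration cutting ATPase activity to 75% of vehicle) or Y125 (raising it to 125%), taken from 4-parameter logistic fits. Rates come from NADH disappearance at 340 nm in a PK/LDH-coupled assay with porcine atria myofibrils.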

[3] = target: T1, Porcine ventricle myofibrils (ventricular myosin ATPase) (Sus scrofa, UniProt P79293); assay: Myofibril ATPase assay, porcine ventricle myofibrils; assay type: biochemical, porcine (Yucatan minipigs)
T1 construct: Myofibrils from porcine cardiac muscle was isolated from the left ventricle of Yucatan minipigs; tissue Exemplar Genetics; host or cells: left ventricle of Yucatan minipigs, myofibrils prepared in house
T1 sequence (P79293 whole entry): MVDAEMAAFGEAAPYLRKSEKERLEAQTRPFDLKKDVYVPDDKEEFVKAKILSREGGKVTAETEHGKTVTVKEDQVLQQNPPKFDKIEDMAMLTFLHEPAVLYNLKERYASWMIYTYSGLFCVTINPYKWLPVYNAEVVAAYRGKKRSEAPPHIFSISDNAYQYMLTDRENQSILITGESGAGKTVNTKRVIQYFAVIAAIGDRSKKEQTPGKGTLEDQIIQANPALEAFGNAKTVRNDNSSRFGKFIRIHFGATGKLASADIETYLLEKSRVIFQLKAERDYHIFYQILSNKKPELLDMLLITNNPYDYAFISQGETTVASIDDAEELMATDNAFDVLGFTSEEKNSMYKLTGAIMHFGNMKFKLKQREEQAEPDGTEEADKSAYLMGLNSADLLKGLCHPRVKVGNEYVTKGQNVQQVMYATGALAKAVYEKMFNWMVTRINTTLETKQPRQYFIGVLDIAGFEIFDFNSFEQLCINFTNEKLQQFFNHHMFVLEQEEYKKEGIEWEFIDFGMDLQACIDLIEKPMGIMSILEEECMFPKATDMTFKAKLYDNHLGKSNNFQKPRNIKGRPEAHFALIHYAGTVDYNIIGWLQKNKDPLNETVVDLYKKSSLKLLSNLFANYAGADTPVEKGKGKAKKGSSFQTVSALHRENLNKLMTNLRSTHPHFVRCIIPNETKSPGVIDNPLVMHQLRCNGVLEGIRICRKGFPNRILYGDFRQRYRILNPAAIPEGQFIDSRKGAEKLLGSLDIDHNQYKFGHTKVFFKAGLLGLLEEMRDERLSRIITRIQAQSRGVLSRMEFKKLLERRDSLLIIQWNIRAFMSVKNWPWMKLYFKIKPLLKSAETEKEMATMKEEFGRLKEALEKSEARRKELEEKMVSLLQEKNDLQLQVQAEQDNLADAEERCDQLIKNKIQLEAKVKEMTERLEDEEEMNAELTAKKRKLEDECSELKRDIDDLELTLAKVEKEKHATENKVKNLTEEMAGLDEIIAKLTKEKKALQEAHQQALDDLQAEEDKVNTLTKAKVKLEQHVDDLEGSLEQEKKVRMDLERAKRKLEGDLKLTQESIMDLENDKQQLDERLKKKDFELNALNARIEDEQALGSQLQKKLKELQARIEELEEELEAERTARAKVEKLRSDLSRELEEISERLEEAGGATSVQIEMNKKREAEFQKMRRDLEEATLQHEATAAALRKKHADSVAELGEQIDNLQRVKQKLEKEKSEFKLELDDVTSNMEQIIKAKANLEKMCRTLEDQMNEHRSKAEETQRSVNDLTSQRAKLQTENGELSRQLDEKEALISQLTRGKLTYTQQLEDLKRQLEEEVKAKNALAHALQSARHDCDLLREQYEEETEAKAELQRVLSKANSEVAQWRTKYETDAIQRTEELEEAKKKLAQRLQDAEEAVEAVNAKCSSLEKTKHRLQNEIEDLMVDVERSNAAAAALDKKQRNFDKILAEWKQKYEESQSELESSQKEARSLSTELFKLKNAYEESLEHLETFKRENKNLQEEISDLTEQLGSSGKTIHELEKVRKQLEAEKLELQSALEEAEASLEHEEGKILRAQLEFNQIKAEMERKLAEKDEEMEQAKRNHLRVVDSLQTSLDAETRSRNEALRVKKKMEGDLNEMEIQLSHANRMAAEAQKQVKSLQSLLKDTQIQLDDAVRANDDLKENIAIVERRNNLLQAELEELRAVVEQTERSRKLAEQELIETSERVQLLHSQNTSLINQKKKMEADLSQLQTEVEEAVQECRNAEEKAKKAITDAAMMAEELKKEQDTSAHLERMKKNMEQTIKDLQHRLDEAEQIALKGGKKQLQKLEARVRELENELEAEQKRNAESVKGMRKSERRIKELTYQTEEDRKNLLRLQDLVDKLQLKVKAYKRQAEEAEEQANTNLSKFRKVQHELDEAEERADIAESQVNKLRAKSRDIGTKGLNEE
In short: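 ATPase activity of porcine left-ventricle myofibrils (Yucatan minipig) was followed through PK-LDH coupling as NADH loss at 340 nm, read every 1.5-2 min for 75 min. Slopes were normalised to vehicle wells and fitted to a 4-parameter logistic model. Values are Y75, the concentration giving a 25% drop in activity, or Y125 for activators.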

[4] = rabbit psoas myofibrils, Y75 value
[5] = porcine atria myofibrils, Y75 value (75% activity relative to no compound)
[6] = porcine ventricle myofibrils, Y75 value
[7] = Y75 value (no ‡ mark), rabbit psoas myofibrils
[8] = Y75 value (no ‡ mark), porcine atria myofibrils
[9] = Y75 value (no ‡ mark), porcine ventricle myofibrils
[10] = ‡ Y125 value, not a Y75 value (125% activity relative to no compound), rabbit psoas myofibrils
[11] = ‡ Y125 value, not a Y75 value (125% activity relative to no compound), porcine ventricle myofibrils

Row | SMILES | Skeletal EC25 [1, 4] [µM] | Atrial EC25 [2, 5] [µM] | Ventricular EC25 [3, 6] [µM] | Skeletal EC25 [1, 7] [µM] | Atrial EC25 [2, 8] [µM] | Ventricular EC25 [3, 9] [µM] | other results
1 | Cc1nccc2[nH]c(=O)c(CC(=O)N[C@@H](C)c3ncc(C#N)cn3)c(C)c12 [compound 483] | 7.32 | 4.03 | 16.67 |  |  |  | 
2 | Cc1c(C2(C(=O)N[C@@H](C)c3ncc(C#N)cn3)CC2)c(=O)[nH]c2ccc(F)c(C#N)c12 (single isomer, unassigned) [compound 2532] |  |  |  | 1.49 | 0.89 | 45.96 | 
3 | Cc1nccc2[nH]c(=O)c([C@H](C)C(=O)N[C@@H](C)c3ccc(F)cc3F)c(C)c12 (single isomer, unassigned) [compound 398] | 0.23 | 2.73 | 59.63 |  |  |  | 
4 | Cc1c(CC(=O)N[C@@H](C)c2ccc(F)cc2F)c(=O)[nH]c2ccnc(C(F)(F)F)c12 [compound 377] | 0.01 | 0.06 | 0.29 |  |  |  | 
5 | C[C@H](C(=O)N[C@H](C)c1ncc(C#N)cc1F)c1cc2c(F)c(F)ccc2[nH]c1=O (single isomer, unassigned) [compound 2599] |  |  |  |  | 2.16 | 16.66 | Skeletal EC25 [1, 10]: 100.00‡ μM
6 | Cc1c(CC(=O)N[C@@H](CO)c2ncc(F)cc2F)c(=O)[nH]c2ccnc(C#N)c12 [compound 262] | 0.13 | 0.19 | 0.67 |  |  |  | 
7 | COc1nccc2[nH]c(=O)c(CC(=O)N[C@@H](C)c3ccc(F)cc3F)c(C)c12 [compound 385] | 0.03 | 0.06 | 0.33 |  |  |  | 
8 | Cc1c(C2(C(=O)N[C@H](C)c3cccc(C#N)n3)CC2)c(=O)[nH]c2ccc(F)cc12 (single isomer, unassigned) [compound 2579] |  |  |  | 100.00 | 100.00 | 100.00 | 
9 | CCc1nccc2[nH]c(=O)c(CC(=O)N[C@@H](C)c3ccc(F)cc3F)cc12 [compound 437] | 1.28 | 91.43 | 100.00 |  |  |  | 
10 | C[C@@H](NC(=O)Cc1cc2cc(F)c(F)cc2[nH]c1=O)c1cnc(C#N)cn1 [compound 1098] |  |  |  | 17.72 | 7.06 | 17.06 | 
11 | Cc1c(C(F)(F)C(=O)N[C@H](C)c2ccc(C#N)nn2)c(=O)[nH]c2ccc(F)cc12 (single isomer, unassigned) [compound 2555] |  |  |  | 0.80 | 3.65 | 6.70 | 
12 | Cc1nccc2[nH]c(=O)c(CC(=O)N[C@H](C)c3cccnc3)c(C)c12 (single isomer, unassigned) [compound 322] | 100.00 | 100.00 | 100.00 |  |  |  | 
13 | Cc1c(C(F)(F)C(=O)N[C@@H](C)c2cccc(C#N)n2)c(=O)[nH]c2ccc(F)cc12 (single isomer, unassigned) [compound 2566] |  |  |  |  | 100.00 |  | Skeletal EC25 [1, 10]: 100.00‡ μM; Ventricular EC25 [3, 11]: 100.00‡ μM
14 | Cc1c(CC(=O)N[C@@H](C)c2ncc(C#N)cc2F)c(=O)[nH]c2ccc(F)c(C3CC3)c12 [compound 28] |  |  |  | 0.02 | 0.04 | 0.06 | 
15 | COc1ncc2[nH]c(=O)c(CC(=O)N[C@@H](C)c3ccc(F)cc3F)cc2n1 [compound 497] | 100 | 73.3 | 100 |  |  |  | 
16 | Cc1c(CC(=O)N[C@@H](C)c2ncc(C#N)cc2F)c(=O)[nH]c2ccc(F)c(C(F)(F)F)c12 [compound 22] |  |  |  | 0.00 | 0.02 | 0.02 | 
17 | Cc1c(CC(=O)N[C@@H](C)c2ccc(F)cc2F)c(=O)[nH]c2ccncc12 [compound 448] | 0.17 | 0.65 | 7.29 |  |  |  | 
18 | Cc1c(C2(C(=O)N[C@@H](C)c3ncc(C#N)cc3F)CC2)c(=O)[nH]c2ccc(F)c(C#N)c12 (single isomer, unassigned) [compound 2524] |  |  |  | 0.13 | 0.16 | 0.31 | 

Row | SMILES | Skeletal EC25 [1, 4] [µM] | Atrial EC25 [2, 5] [µM] | Ventricular EC25 [3, 6] [µM] | Skeletal EC25 [1, 7] [µM] | Atrial EC25 [2, 8] [µM] | Ventricular EC25 [3, 9] [µM] | other results
19 | C[C@H](NC(=O)Cc1c(C(F)(F)F)c2c(C3CC3)nccc2[nH]c1=O)c1ccc(C#N)cn1 (single isomer, unassigned) [compound 3006] | 100.00 |  | 100.00 |  |  |  | Atrial EC25 (Y125 value, marked ‡) ([2]; porcine atria myofibrils, Y125 value (125% activity), not a Y75 value): 77.22‡ μM
20 | Cc1nccc2[nH]c(=O)c(CC(=O)N[C@H](CO)c3ccc(F)cc3F)c(C)c12 [compound 498] | 7.2 | 100 | 100 |  |  |  | 
21 | Cc1nc(C#N)cnc1[C@H](C)NC(=O)C(F)(F)c1c(C)c2cc(F)ccc2[nH]c1=O (single isomer, unassigned) [compound 2568] |  |  |  | 0.11 | 0.57 | 0.58 | 
22 | Cc1c(CC(=O)N[C@@H](C)c2ccc(S(C)(=O)=O)cc2F)c(=O)[nH]c2ccnc(C#N)c12 (single isomer, unassigned) [compound 215] | 100.00 | 100.00 | 100.00 |  |  |  | 
23 | C[C@@H](NC(=O)Cc1c(C2CC2)c2cc(F)ccc2[nH]c1=O)c1ccc(C#N)nn1 (single isomer, unassigned) [compound 2053] |  |  |  | 12.45 | 100.00 | 100.00 | 
24 | CC(NC(=O)C1(c2cc3c(F)c(F)ccc3[nH]c2=O)CC1)c1cccc(C#N)n1 (single isomer, unassigned) [Compound 2569] |  |  |  | 100.00 | 4.84 | 100.00 | 
25 | C[C@H](NC(=O)C1(c2cc3cc(F)ccc3[nH]c2=O)CC1)c1cccc(C#N)n1 (single isomer, unassigned) [compound 2535] |  |  |  |  | 100.00 |  | Skeletal EC25 [1, 10]: 51.07‡ μM; Ventricular EC25 [3, 11]: 85.38‡ μM
26 | CC(NC(=O)Cc1cc2c(F)c(F)ccc2[nH]c1=O)c1nc(C#N)cs1 (single isomer, unassigned) [compound 4009, N-(1-(4-cyanothiazol-2-yl)ethyl)-2-(5,6-difluoro-2-oxo-1,2-dihydroquinolin-3-yl)acetamide] |  |  |  |  |  |  | Skeletal EC25 ([1]; Y75 value: concentration required to reduce myosin ATP-ase activity by 25%, Rabbit Psoas Prep pCa 25 GEOM_MEAN): 1.49 µM; Atrial EC25 ([2]; Y75 value: concentration required to reduce myosin ATP-ase activity by 25%, Porcine Atria Prep pCa 25 GEOM_MEAN): 2.28 µM; Ventricular EC25 ([3]; Y75 value: concentration required to reduce myosin ATP-ase activity by 25%, Porcine Ventricle Prep pCa 25 GEOM_MEAN): 0.91 µM
27 | C[C@@H](NC(=O)C(F)(F)c1cc2c(F)c(F)ccc2[nH]c1=O)c1cccc(C#N)n1 (single isomer, unassigned) [compound 2571] |  |  |  | 100.00 | 40.54 | 8.06 | 
28 | C[C@H](NC(=O)C1(c2cc3cc(F)ccc3[nH]c2=O)CC1)c1nccc(C#N)n1 (single isomer, unassigned) [compound 2508] |  |  |  | 5.03 | 100.00 |  | Ventricular EC25 [3, 11]: 70.50‡ μM
29 | Cc1ccc([C@H](C)NC(=O)Cc2c(C)c3c(C)nccc3[nH]c2=O)cc1 (single isomer, unassigned) [compound 306] | 5.05 | 11.75 | 100.00 |  |  |  | 
30 | Cc1nccc2[nH]c(=O)c([C@@H](C)C(=O)N[C@@H](C)c3ccc(C#N)cc3F)c(C)c12 (single isomer, unassigned) [compound 195] | 0.11 | 0.30 | 2.97 |  |  |  | 
31 | C[C@@H](NC(=O)Cc1c(C2CC2)c2c(F)c(F)ccc2[nH]c1=O)c1ccc(C#N)nn1 (single isomer, unassigned) [compound 2065] |  |  |  | 1.10 | 100.00 | 100.00 | 
32 | C[C@H](NC(=O)C1(c2cc3c(F)c(F)ccc3[nH]c2=O)CC1)c1cnc(C#N)cn1 (single isomer, unassigned) [compound 4830] |  |  |  | 1.34 | 0.46 | 100.00 | 
33 | COC[C@H](NC(=O)Cc1c(C)c2c(C#N)nccc2[nH]c1=O)c1ccc(C#N)cc1F [compound 170] | 0.03 | 0.08 | 1.02 |  |  |  | 
34 | Cc1nc(C#N)cnc1[C@H](C)NC(=O)Cc1c(C)c2c(F)c(F)ccc2[nH]c1=O [compound 1140] |  |  |  | 0.00 | 0.08 | 0.06 | 
35 | CC(C(=O)N[C@@H](C)c1ccc(F)cc1F)c1cc2c(I)nccc2[nH]c1=O (stereo partly drawn) [compound 362] | 0.40 | 9.38 | 100.00 |  |  |  | 
